From patent US20120129721A1, “URINARY GM2 ACTIVATOR PROTEIN AS A MARKER OF ACUTE RENAL FAILURE OR THE RISK OF […] RENAL FAILURE” (priority 2009, published 2012)
Like-named read-outs stand apart in the source and are kept apart here.

Columns and labels:
Wistar rats [1] = experiment: Survival rate and body weight evolution of rats treated with gentamicin; type: in vivo; details: gentamicin 150 mg/kg/day (G-150), 7 days
Wistar rats [2] = experiment: Kidney histology (haematoxylin and eosin); type: in vivo
Description: Eventually, they were used for Western blot studies. […] The powder was also kept at −80° C. […] After it, tissue samples were processed for immunohistochemical studies.
Kidneys were kept in p-formaldehyde overnight at 4° C. Then, paraffin blocks were made and 5-μm tissue sections were cut and stained with hematoxilin and eosin. Photographs were taken under an Olympus BX51 microscope connected to an Olympus DP70 colour, digital camera.

[3] = test system: GM2 activator protein (GM2AP) in urine
Source text: (§1) In-house bred, female Wistar rats weighing 190-230 g were divided in the following experimental groups (FIG. 1): (i) Control: rats treated i.p. during 7-13 days with saline (0.9% NaCl), once daily.
(§2) For the whole experiment, rats were individually allocated in metabolic cages under temperature and humidity controlled conditions. Animals were allowed to eat regular chow and drink water ad libitum. At different times, 24-hour urine and blood samples were obtained. Urine was collected in graduated vessels supplemented with 100 μL of 0.1% sodium azide and 1 ml oil to prevent contamination and evaporation, respectively. Subsequently, urine was cleared by centrifugation at 1,175×g, aliquoted and stored at −80° C. Blood was drawn from a small incision in the tail and collected in heparinised capillaries. These were immediately centrifuged at 12,000×g and plasma was stored at −80° C. At the end of the experiment, rats were anesthetized with sodium pentobarbital (10 mg/kg). The kidneys were perfused with heparinised saline through the abdominal aorta, and they were immediately dissected. The right kidney and one half of the left one were swiftly frozen by immersion in liquid nitrogen, and stored at −80° C. Eventually, they were used for Western blot studies. For such a purpose, frozen tissues were homogenized under freezing conditions by hammer-smashing, until a fine powder was obtained. The powder was also kept at −80° C. The second half of the left kidney was immersed in 3.7% paraformaldehyde at 4° C. during 14-16 hours. After it, tissue samples were processed for immunohistochemical studies.
Protein extracts were obtained from 100 mg tissue homogenate powder, prepared by homogenizing the kidneys with a tissue mixer (Ultra-Turrax T8, IKA®-Werwe) at 4° C. in homogenization buffer (140 mM NaCl, 20 mM Tris-HCl pH=7.5, 0.5 Methylenediaminetetraacetic acid—EDTA-, 10% glycerol, 1% Igepal CA-630, 1 μg/mL aprotinin, 1 μg/mL leupeptin, 1 μg/mL pepstatin A, 1 mM phenylmethylsulphonyl fluoride—PMSF-). Tissue homogenates were centrifuged at 22,000 g during 15 minutes at 4° C. Supernatants were collected. Protein concentration was measured with a commercial kit (BioRad) based on the Lowry method. 50 μg total protein from tissue extracts or 20 μL cleared urine from each sample were separated by electrophoresis in 10-15% acrylamide gels (Mini Protean II system, BioRad). Immediately, proteins were electrically transferred to an Immobilon-P membrane (Millipore). […]
Protein concentration was determined by the Bradford method.

[4] = test system: PAI-1, KIM-1 and vimentin in renal tissue; experiment: Western blot of renal tissue homogenates for markers of tissue damage and repair
Source text: as §1, §2
(§3) Protein extracts were obtained from 100 mg tissue homogenate powder, prepared by homogenizing the kidneys with a tissue mixer (Ultra-Turrax T8, IKA®-Werwe) at 4° C. in homogenization buffer (140 mM NaCl, 20 mM Tris-HCl pH=7.5, 0.5 Methylenediaminetetraacetic acid—EDTA-, 10% glycerol, 1% Igepal CA-630, 1 μg/mL aprotinin, 1 μg/mL leupeptin, 1 μg/mL pepstatin A, 1 mM phenylmethylsulphonyl fluoride—PMSF-). Tissue homogenates were centrifuged at 22,000 g during 15 minutes at 4° C. Supernatants were collected. Protein concentration was measured with a commercial kit (BioRad) based on the Lowry method. 50 μg total protein from tissue extracts or 20 μL cleared urine from each sample were separated by electrophoresis in 10-15% acrylamide gels (Mini Protean II system, BioRad). Immediately, proteins were electrically transferred to an Immobilon-P membrane (Millipore). After blocking the membrane to avoid unspecific binding, membranes were probed with antibodies against KIM-1 (R&D Systems), bone morphogenetic protein-7 (BMP-7, Santa Cruz Biotechnology), plasminogen activator inhibitor-1 (PAI-1, BD Biosciences), vimentin (Dako Denmark) and GM2 activator protein (GM2AP, see above).

Wistar rats [5] = experiment: Time course of markers of nephrotoxicity under gentamicin 150 mg/kg/day
Source text: as §1, §2
(§4) Plasma and urine concentration of creatinine and blood urea nitrogen (BUN) were determined by an automated analysis system (Reflotron®, Roche Diagnostics, Barcelona, Spain) and commercial reactive strips (Roche Diagnostics, Barcelona, Spain), using 32 μL of plasma and urine. This method has a lower detection limit of 0.5 mg/dL for creatinine. Samples reading under 0.5 mg/dL creatinine were head-to-head re-assayed by the colorimetric method of Jaffe (Hervey, 1953. Nature, 171: 1125).
(§5) Urine protein concentration (mg/mL) was measured by the Bradford method (39). Daily protein excretion (mg/day) was obtained by multiplying urine protein concentration by the 24-hour urine flow (mL/day).
(§6) Urine NAG activity (arbitrary units, AU/mL), as an estimation of urine NAG concentration, was measured by a commercial enzymatic test (Roche Diagnostics, Barcelona, Spain) following the manufacturer's instructions. Urine NAG activity was converted into daily NAG excretion (AU/day) by multiplying urine NAG activity by 24-hour urine flow (mL/day).
as §3

Wistar rats [6] = experiment: Renal function characterization (plasma creatinine, BUN, urinary protein and NAG excretion) of gentamicin-treated rats; details: for BUN concentration: vs control
Source text: as §1, §2, §4, §5, §6

[7] = test system: GM2 activator protein (GM2AP) in urine; experiment: Urinary GM2AP (Western blot) and renal function in humans treated with gentamicin; type: in vivo; details: hospitalized patients under gentamicin regime for 2 or 3 days vs untreated controls
Source text: Supernatants were collected.
As controls, the urine from age- and sex-matched individuals not receiving gentamicin was used.

[8] = G-150, after inception of treatment

Compound: gentamicin
- body weight (Wistar rats [1]): body weight loss
- death rate (Wistar rats [1]): ~50%
- renal histology (Wistar rats [2]; G-50, 7 days, vs control): no gross tissue alterations
- renal histology (Wistar rats [2]; G-150, 7 days): massive tubular necrosis
- level of GM2AP in urine (Western blot) ([3]; G-50, 7 days, vs control): differential level
- GM2AP in urine (differential proteomics, 2D-electrophoresis) ([3]; G-50, 7 days, absent in control urine): highly expressed
- level of GM2AP in urine (Western blot) ([3]; G-150, 7 days, overt renal failure): increased
- renal level of KIM-1 ([4]; G-50, 7 days, vs control): no increment
- renal level of PAI-1 ([4]; G-50, 7 days, vs control): no increment
- renal level of vimentin ([4]; G-50, 7 days, vs control): no increment
- renal level of KIM-1 ([4]; G-150, 7 days): clear increase
- renal level of PAI-1 ([4]; G-150, 7 days): clear increase
- renal level of vimentin ([4]; G-150, 7 days): clear increase
- day by which BUN concentration was increased (Wistar rats [5]; [8]): 4 days
- day by which proteinuria was increased (Wistar rats [5]; [8]): 4 days
- day at which urinary level of GM2AP started to increase (Wistar rats [5]; G-150, urine, Western blot): 1 days
- day by which urinary level of KIM-1 was increased (Wistar rats [5]; G-150, urine, Western blot): 4 days
- day by which urinary level of PAI-1 was increased (Wistar rats [5]; G-150, urine, Western blot): 4 days
- time from beginning of administration at which GM2AP is detected by Western blot (Wistar rats [5]; gentamicin 150 mg/kg/day, urine): 24 h
- nephrotoxic effect (pilot dose titration) (Wistar rats [6]; 6 daily doses of 50 mg/kg/day (G-50)): no signs of nephrotoxicity
- nephrotoxic effect (pilot dose titration) (Wistar rats [6]; 6 daily doses of 150 mg/kg/day (G-150)): marked renal failure
- BUN concentration (Wistar rats [6]; G-50, 7 days): not modified
- BUN concentration (Wistar rats [6]; G-150, 7 days): profoundly altered
- urinary level of GM2AP (Western blot) [7]: clearly higher

Compound: N.N.[Cl][Pt][Cl] [cisplatin]
- urinary GM2AP (Western blot) ([3]; two doses of cisplatin 10 mg/kg on first and third days, urine 4 days after treatment inception): high levels
